From PubChem BioAssay AID1259407 (Chemical Carcinogenesis Research Information System (CCRIS), 2018)
The source made the active and inactive calls. The rule behind the calls is not given here.

System: CCRIS mutagenicity, Ames/micronucleus/aberration tests
Test: CCRIS mutagenicity studies
[1] = Test System: AMES SALMONELLA TYPHIMURIUM, Strain/Indicator: TA98, Metabolic Activation: NONE, Method: PREINCUBATION
[2] = Test System: AMES SALMONELLA TYPHIMURIUM, Strain/Indicator: TA100, Metabolic Activation: NONE, Method: PREINCUBATION
[3] = Test System: AMES SALMONELLA TYPHIMURIUM, Strain/Indicator: TA1535, Metabolic Activation: NONE, Method: PREINCUBATION
[4] = Test System: AMES SALMONELLA TYPHIMURIUM, Strain/Indicator: TA1537, Metabolic Activation: NONE, Method: PREINCUBATION
[5] = Test System: AMES SALMONELLA TYPHIMURIUM, Strain/Indicator: TA98, Metabolic Activation: NONE, Method: STANDARD PLATE
[6] = Test System: AMES SALMONELLA TYPHIMURIUM, Strain/Indicator: TA98, Metabolic Activation: RAT, LIVER, S-9, AROCLOR 1254, Method: STANDARD PLATE
[7] = Test System: AMES SALMONELLA TYPHIMURIUM, Strain/Indicator: TA100, Metabolic Activation: NONE, Method: STANDARD PLATE
[8] = Test System: AMES SALMONELLA TYPHIMURIUM, Strain/Indicator: TA100, Metabolic Activation: RAT, LIVER, S-9, AROCLOR 1254, Method: STANDARD PLATE

O=C=NCCCCCCN=C=O
mutagenic call (Test System: AMES SALMONELLA TYPHIMURIUM, Strain/Indicator: TA98, Metabolic Activation: NONE, Method: DESICCATOR): inactive; negative
mutagenic call [1]: inactive; negative
mutagenic call (Test System: AMES SALMONELLA TYPHIMURIUM, Strain/Indicator: TA98, Metabolic Activation: RAT LIVER S-9, AROCLOR 1254 (10%), Method: DESICCATOR): inactive; negative
mutagenic call (Test System: AMES SALMONELLA TYPHIMURIUM, Strain/Indicator: TA98, Metabolic Activation: RAT, LIVER, S-9, SODIUM PHENOBARBITAL AND 5,6-BENZOFLAVONE, Method: PREINCUBATION): inactive; negative
mutagenic call (Test System: AMES SALMONELLA TYPHIMURIUM, Strain/Indicator: TA100, Metabolic Activation: NONE, Method: DESICCATOR): inactive; negative
mutagenic call [2]: inactive; negative
mutagenic call (Test System: AMES SALMONELLA TYPHIMURIUM, Strain/Indicator: TA100, Metabolic Activation: RAT LIVER S-9, AROCLOR 1254 (10%), Method: DESICCATOR): inactive; negative
mutagenic call (Test System: AMES SALMONELLA TYPHIMURIUM, Strain/Indicator: TA100, Metabolic Activation: RAT, LIVER, S-9, SODIUM PHENOBARBITAL AND 5,6-BENZOFLAVONE, Method: PREINCUBATION): inactive; negative
mutagenic call (Test System: AMES SALMONELLA TYPHIMURIUM, Strain/Indicator: TA102, Metabolic Activation: NONE, Method: PREINCUBATION): inactive; negative
mutagenic call (Test System: AMES SALMONELLA TYPHIMURIUM, Strain/Indicator: TA102, Metabolic Activation: RAT, LIVER, S-9, SODIUM PHENOBARBITAL AND 5,6-BENZOFLAVONE, Method: PREINCUBATION): inactive; negative
mutagenic call (Test System: AMES SALMONELLA TYPHIMURIUM, Strain/Indicator: TA104, Metabolic Activation: NONE, Method: PREINCUBATION): inactive; negative
mutagenic call (Test System: AMES SALMONELLA TYPHIMURIUM, Strain/Indicator: TA104, Metabolic Activation: RAT, LIVER, S-9, SODIUM PHENOBARBITAL AND 5,6-BENZOFLAVONE, Method: PREINCUBATION): inactive; negative
mutagenic call (Test System: AMES SALMONELLA TYPHIMURIUM, Strain/Indicator: TA1535, Metabolic Activation: NONE, Method: DESICCATOR): inactive; negative
mutagenic call [3]: inactive; negative
mutagenic call (Test System: AMES SALMONELLA TYPHIMURIUM, Strain/Indicator: TA1535, Metabolic Activation: RAT LIVER S-9, AROCLOR 1254 (10%), Method: DESICCATOR): inactive; negative
mutagenic call (Test System: AMES SALMONELLA TYPHIMURIUM, Strain/Indicator: TA1535, Metabolic Activation: RAT, LIVER, S-9, SODIUM PHENOBARBITAL AND 5,6-BENZOFLAVONE, Method: PREINCUBATION): inactive; negative
mutagenic call (Test System: AMES SALMONELLA TYPHIMURIUM, Strain/Indicator: TA1537, Metabolic Activation: NONE, Method: DESICCATOR): inactive; negative
mutagenic call [4]: inactive; negative
mutagenic call (Test System: AMES SALMONELLA TYPHIMURIUM, Strain/Indicator: TA1537, Metabolic Activation: RAT LIVER S-9, AROCLOR 1254 (10%), Method: DESICCATOR): inactive; negative
mutagenic call (Test System: AMES SALMONELLA TYPHIMURIUM, Strain/Indicator: TA1537, Metabolic Activation: RAT, LIVER, S-9, SODIUM PHENOBARBITAL AND 5,6-BENZOFLAVONE, Method: PREINCUBATION): inactive; negative
mutagenic call (Test System: CHINESE HAMSTER OVARY CELLS, Strain/Indicator: CHO/HGPRT/6-THIOGUANINE, Metabolic Activation: NONE, Method: DESICCATOR): inactive; negative
mutagenic call (Test System: CHINESE HAMSTER OVARY CELLS, Strain/Indicator: CHO/HGPRT/6-THIOGUANINE, Metabolic Activation: RAT LIVER S-9, AROCLOR 1254 (10%), Method: DESICCATOR): inactive; negative
mutagenic call (Test System: E. COLI, Strain/Indicator: WP2UVRA/PKM101, Metabolic Activation: NONE, Method: PREINCUBATION): inactive; negative
mutagenic call (Test System: E. COLI, Strain/Indicator: WP2UVRA/PKM101, Metabolic Activation: RAT, LIVER, S-9, SODIUM PHENOBARBITAL AND 5,6-BENZOFLAVONE, Method: PREINCUBATION): inactive; negative
mutagenic call (Test System: E. COLI, Strain/Indicator: WP2UVRA, Metabolic Activation: NONE, Method: PREINCUBATION): inactive; negative
mutagenic call (Test System: E. COLI, Strain/Indicator: WP2UVRA, Metabolic Activation: RAT, LIVER, S-9, SODIUM PHENOBARBITAL AND 5,6-BENZOFLAVONE, Method: PREINCUBATION): inactive; negative

CN(C)c1ccc(/C=C/C(=O)c2ccccc2)cc1
mutagenic call [5]: inactive; negative
mutagenic call [6]: inactive; negative
mutagenic call [7]: inactive; negative
mutagenic call [8]: inactive; negative

O=C1OC(=O)c2c(Br)c(Br)c(Br)c(Br)c21
mutagenic call (Test System: AMES SALMONELLA TYPHIMURIUM, Strain/Indicator: TA98, Metabolic Activation: HAMSTER, LIVER, S-9, AROCLOR 1254 (10%), Method: PREINCUBATION): inactive; negative
mutagenic call [1]: inactive; negative
mutagenic call (Test System: AMES SALMONELLA TYPHIMURIUM, Strain/Indicator: TA98, Metabolic Activation: RAT, LIVER, S-9, AROCLOR 1254 (10%), Method: PREINCUBATION): inactive; negative
mutagenic call (Test System: AMES SALMONELLA TYPHIMURIUM, Strain/Indicator: TA100, Metabolic Activation: HAMSTER, LIVER, S-9, AROCLOR 1254 (10%), Method: PREINCUBATION): inactive; negative
mutagenic call [2]: inactive; negative
mutagenic call (Test System: AMES SALMONELLA TYPHIMURIUM, Strain/Indicator: TA100, Metabolic Activation: RAT, LIVER, S-9, AROCLOR 1254 (10%), Method: PREINCUBATION): inactive; negative
mutagenic call (Test System: AMES SALMONELLA TYPHIMURIUM, Strain/Indicator: TA1535, Metabolic Activation: HAMSTER, LIVER, S-9, AROCLOR 1254 (10%), Method: PREINCUBATION): inactive; negative
mutagenic call [3]: inactive; negative
mutagenic call (Test System: AMES SALMONELLA TYPHIMURIUM, Strain/Indicator: TA1535, Metabolic Activation: RAT, LIVER, S-9, AROCLOR 1254 (10%), Method: PREINCUBATION): inactive; negative
mutagenic call (Test System: AMES SALMONELLA TYPHIMURIUM, Strain/Indicator: TA1537, Metabolic Activation: HAMSTER, LIVER, S-9, AROCLOR 1254 (10%), Method: PREINCUBATION): inactive; negative
mutagenic call [4]: inactive; negative
mutagenic call (Test System: AMES SALMONELLA TYPHIMURIUM, Strain/Indicator: TA1537, Metabolic Activation: RAT, LIVER, S-9, AROCLOR 1254 (10%), Method: PREINCUBATION): inactive; negative

O=[N+]([O-])c1ccc2ccc3cccc4c(O)cc1c2c34
mutagenic call [5]: active; positive
mutagenic call [6]: active; positive

CC(=O)O[C@H]1[C@H](OC(C)=O)COC(Nc2ccc([N+](=O)[O-])cc2)[C@@H]1OC(C)=O (some centres not stated)
mutagenic call [7]: inactive; negative

O=S(O)(O)=S
mutagenic call [5]: inactive; negative
mutagenic call [6]: inactive; negative
mutagenic call [7]: inactive; negative
mutagenic call [8]: inactive; negative
mutagenic call (Test System: AMES SALMONELLA TYPHIMURIUM, Strain/Indicator: TA1535, Metabolic Activation: NONE, Method: STANDARD PLATE): inactive; negative
mutagenic call (Test System: AMES SALMONELLA TYPHIMURIUM, Strain/Indicator: TA1535, Metabolic Activation: RAT, LIVER, S-9, AROCLOR 1254, Method: STANDARD PLATE): inactive; negative
mutagenic call (Test System: AMES SALMONELLA TYPHIMURIUM, Strain/Indicator: TA1537, Metabolic Activation: NONE, Method: STANDARD PLATE): inactive; negative
mutagenic call (Test System: AMES SALMONELLA TYPHIMURIUM, Strain/Indicator: TA1537, Metabolic Activation: RAT, LIVER, S-9, AROCLOR 1254, Method: STANDARD PLATE): inactive; negative
mutagenic call (Test System: AMES SALMONELLA TYPHIMURIUM, Strain/Indicator: TA1538, Metabolic Activation: NONE, Method: STANDARD PLATE): inactive; negative
mutagenic call (Test System: AMES SALMONELLA TYPHIMURIUM, Strain/Indicator: TA1538, Metabolic Activation: RAT, LIVER, S-9, AROCLOR 1254, Method: STANDARD PLATE): inactive; negative
mutagenic call (Test System: E. COLI, Strain/Indicator: WP2, Metabolic Activation: NONE, Method: STANDARD PLATE): inactive; negative
mutagenic call (Test System: E. COLI, Strain/Indicator: WP2, Metabolic Activation: RAT, LIVER, S-9, AROCLOR 1254, Method: STANDARD PLATE): inactive; negative
